From patent publication US7671084B2 (Wyeth, priority 2004, dated 2010)
Where a name gives a salt, the structure may show the parent alone. Read-outs that look alike come from different tables or passages of the source.

What was measured:
[1] = biological target: T1, human ERβ (Homo sapiens, UniProt Q92731); assay: Competition with [3H]-17β-estradiol for binding to ERβ; details: ligand binding domain of human ERβ in E. coli crude lysate, 2 nM [3H]-17β-estradiol, 5-15 hours at room temperature
T1 construct: made in house; host or cells: E. coli (crude lysate)
Method: Representative examples of the invention were evaluated for their ability to compete with 17β-estradiol for both ERα and ERβ. This test procedure provides the methodology for one to determine whether a particular compound binds to the estrogen receptor (and is therefore “estrogenic”) and whether there is selectivity for ERα or ERβ. […] 17β-estradiol is included as a standard reference for comparison. The procedure used is briefly described below. A crude lysate of E. coli expressing the estrogen receptor ligand binding domains (D, E, & F) of human ERα or ERβ was prepared. Both receptors and compounds were diluted in 1× Dulbecco's PBS (DPBS) supplemented with 1 mM EDTA. Using a high binding masked microtiter plate, 100 uL of receptor (1 uG/well) was combined with 2 nm [^3H]-17β-estradiol and various concentrations of compound. After between 5 and 15 hours at room temperature, the plates were washed with DPBS/1 mM EDTA and bound radioactivity determined by liquid scintillation counting. The IC50 is defined as the concentration of compound that decreases total 17β-estradiol binding by 50%.

[2] = biological target: T2, human ERα (Homo sapiens, UniProt P03372); assay: Competition with [3H]-17β-estradiol for binding to ERα; details: ligand binding domain of human ERα in E. coli crude lysate, 2 nM [3H]-17β-estradiol, 5-15 hours at room temperature
T2 construct: made in house; host or cells: E. coli (crude lysate)
T2 sequence (P03372 311-547 limits assumed): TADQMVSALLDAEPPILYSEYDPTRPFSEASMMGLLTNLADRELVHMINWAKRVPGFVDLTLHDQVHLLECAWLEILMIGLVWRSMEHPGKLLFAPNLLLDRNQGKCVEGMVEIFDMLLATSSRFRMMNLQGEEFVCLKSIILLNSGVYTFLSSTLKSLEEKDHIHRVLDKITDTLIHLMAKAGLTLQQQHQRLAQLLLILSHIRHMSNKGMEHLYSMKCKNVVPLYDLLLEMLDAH
Method: Representative examples of the invention were evaluated for their ability to compete with 17β-estradiol for both ERα and ERβ. This test procedure provides the methodology for one to determine whether a particular compound binds to the estrogen receptor (and is therefore “estrogenic”) and whether there is selectivity for ERα or ERβ. The values are shown in the Table infra and are reported as IC50s. 17β-estradiol is included as a standard reference for comparison. The procedure used is briefly described below. A crude lysate of E. coli expressing the estrogen receptor ligand binding domains (D, E, & F) of human ERα or ERβ was prepared. Both receptors and compounds were diluted in 1× Dulbecco's PBS (DPBS) supplemented with 1 mM EDTA. Using a high binding masked microtiter plate, 100 uL of receptor (1 uG/well) was combined with 2 nm [^3H]-17β-estradiol and various concentrations of compound. After between 5 and 15 hours at room temperature, the plates were washed with DPBS/1 mM EDTA and bound radioactivity determined by liquid scintillation counting. The IC50 is defined as the concentration of compound that decreases total 17β-estradiol binding by 50%.

T1 sequence (Q92731 264-498 limits assumed): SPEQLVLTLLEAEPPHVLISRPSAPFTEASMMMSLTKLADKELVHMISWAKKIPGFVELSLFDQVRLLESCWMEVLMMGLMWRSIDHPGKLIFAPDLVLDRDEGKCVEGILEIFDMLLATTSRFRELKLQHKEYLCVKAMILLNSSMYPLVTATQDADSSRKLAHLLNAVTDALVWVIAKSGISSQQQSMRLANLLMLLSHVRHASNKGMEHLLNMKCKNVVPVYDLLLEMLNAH

Oc1ccc2c(c1)COc1c-2cc2ccc(O)cc2c1-c1ccc(Cl)cc1 [Example 28, 7-(4-Chlorophenyl)-5H-dibenzo[c,g]chromene-3,9-diol]
melting point: 239 to 242 °C | IC50 [1]: 9.3 nM | IC50 ([2]; read-out: ERα (nM) IC50): 320 nM

CCCCc1c2c(cc3ccc(O)cc13)-c1ccc(O)cc1CO2 [Example 49, 7-Butyl-5H-dibenzo[c,g]chromene-3,9-diol]
melting point: 187 to 189 °C | IC50 [1]: 0.8 nM | IC50 ([2]; read-out: ERα (nM) IC50): 4 nM

Oc1ccc2c(c1)COc1c-2cc2ccc(O)cc2c1-c1cccnc1 [Example 50, 7-(3-Pyridinyl)-5H-dibenzo[c,g]chromene-3,9-diol]
melting point: > 250 °C | IC50 [1]: 14 nM | IC50 ([2]; read-out: ERα (nM) IC50): 1360 nM

COc1ccncc1-c1c2c(cc3ccc(O)cc13)-c1ccc(O)cc1CO2 [Example 51, 7-(4-Methoxy-3-Pyridyl)-5H-dibenzo[c,g]chromene-3,9-diol]
melting point: > 220 °C

Cc1ccc(-c2c3c(cc4ccc(O)cc24)-c2ccc(O)cc2CO3)cc1 [Example 26, 7-(4-Tolyl)-5H-dibenzo[c,g]chromene-3,9-diol]
melting point: 238 to 240 °C | IC50 [1]: 4.1 nM | IC50 ([2]; read-out: ERα (nM) IC50): 137 nM

Oc1ccc2c(c1)COc1c-2cc2ccc(O)cc2c1-c1ncccn1 [Example 52, 7-(Pyrimidyl)-5H-dibenzo[c,g]chromene-3,9-diol]
IC50 [1]: 60 nM | IC50 ([2]; read-out: ERα (nM) IC50): 1600 nM

COc1cccc(-c2c3c(cc4ccc(O)cc24)-c2ccc(O)cc2CO3)c1 [Example 34, 7-(3-Methoxyphenyl)-5H-dibenzo[c,g]chromene-3,9-diol]
melting point: 220 to 223 °C | IC50 [1]: 17 nM | IC50 ([2]; read-out: ERα (nM) IC50): 434 nM

Oc1ccc2c(c1)COc1c-2cc2ccc(O)cc2c1-c1ccsc1 [Example 31, 7-Thien-3-yl-5H-dibenzo[c,g]chromene-3,9-diol]
melting point: 159 to 161 °C | IC50 [1]: 4.1 nM | IC50 ([2]; read-out: ERα (nM) IC50): 152 nM

CCc1ccc(-c2c3c(cc4ccc(O)cc24)-c2ccc(O)cc2CO3)cc1 [Example 62, 7-(4-Ethylphenyl)-5H-dibenzo[c,g]chromene-3,9-diol]
melting point: 203 to 205 °C | IC50 [1]: 26 nM | IC50 ([2]; read-out: ERα (nM) IC50): 892 nM

Oc1ccc2c(c1)COc1c-2cc2ccc(O)cc2c1-c1cccc(F)c1 [Example 32, 7-(3-Fluorophenyl)-5H-dibenzo[c,g]chromene-3,9-diol]
melting point: 225 to 227 °C | IC50 [1]: 3.3 nM | IC50 ([2]; read-out: ERα (nM) IC50): 93 nM

COc1c2c(c(Br)c3ccc(O)cc13)-c1ccc(O)cc1CO2 [Example 19, 12-Bromo-7-methoxy-5H-dibenzo[c,g]chromene-3,9-diol]
IC50 [1]: 3.3 nM | IC50 ([2]; read-out: ERα (nM) IC50): 12 nM

N#CCc1ccc(-c2c3c(cc4ccc(O)cc24)-c2ccc(O)cc2CO3)cc1 [Example 57, 7-(4-Cyanomethylphenyl)-5H-dibenzo[c,g]chromene-3,9-diol]
melting point: 240 to 242 °C | IC50 [1]: 71 nM | IC50 ([2]; read-out: ERα (nM) IC50): 358 nM

Oc1ccc2c(c1)COc1c-2cc2ccc(O)cc2c1-c1cccc(Cl)c1 [Example 33, 7-(3-Chlorophenyl)-5H-dibenzo[c,g]chromene-3,9-diol]
melting point: 243 to 246 °C | IC50 [1]: 18 nM | IC50 ([2]; read-out: ERα (nM) IC50): 63 nM

Cc1ccc(-c2c3c(cc4ccc(O)cc24)-c2ccc(O)cc2CO3)cc1F [Example 41, 7-(3-Fluoro-4-Methylphenyl)-5H-dibenzo[c,g]chromene-3,9-diol]
melting point: 238 to 240 °C | IC50 [1]: 28 nM | IC50 ([2]; read-out: ERα (nM) IC50): 655 nM

COc1cncc(-c2c3c(cc4ccc(O)cc24)-c2ccc(O)cc2CO3)c1 [Example 53, 7-(5-Methoxy-3-Pyridyl)-5H-dibenzo[c,g]chromene-3,9-diol]
melting point: > 250 °C | IC50 [1]: 34 nM | IC50 ([2]; read-out: ERα (nM) IC50): 2420 nM

Oc1ccc2c(c1)COc1c-2cc2ccc(O)cc2c1-c1cccc(OC(F)(F)F)c1 [Example 58, 7-(3-Trifluoromethoxyphenyl)-5H-dibenzo[c,g]chromene-3,9-diol]
melting point: 110 to 112 °C | IC50 [1]: 40 nM | IC50 ([2]; read-out: ERα (nM) IC50): 661 nM

OCc1ccccc1-c1c2c(cc3ccc(O)cc13)-c1ccc(O)cc1CO2 [Example 22, 7-[2-(Hydroxymethyl)phenyl]-5H-dibenzo[c,g]chromene-3,9-diol]
melting point: 171 to 173 °C | IC50 [1]: 349 nM | IC50 ([2]; read-out: ERα (nM) IC50): 531 nM

Oc1ccc2c(c1)COc1c-2cc2ccc(O)cc2c1-c1ccccc1 [Example 23, 7-Phenyl-5H-dibenzo[c,g]chromene-3,9-diol]
melting point: 225 to 227 °C | IC50 [1]: 4.1 nM | IC50 ([2]; read-out: ERα (nM) IC50): 137 nM

COc1ccc(-c2c3c(cc4ccc(O)cc24)-c2ccc(O)cc2CO3)cn1 [Example 51]
IC50 [1]: 22 nM | IC50 ([2]; read-out: ERα (nM) IC50): 764 nM

Oc1ccc2c(c1)COc1c-2cc2ccc(O)cc2c1-c1ccco1 [Example 48, 7-(2-Furyl)-5H-dibenzo[c,g]chromene-3,9-diol]
melting point: 158 to 163 °C | IC50 [1]: 3.5 nM | IC50 ([2]; read-out: ERα (nM) IC50): 146 nM

Cc1cc(-c2c3c(cc4ccc(O)cc24)-c2ccc(O)cc2CO3)ccc1F [Example 46, 7-(3-Methyl-4-Fluorophenyl)-5H-dibenzo[c,g]chromene-3,9-diol]
melting point: 185 to 188 °C | IC50 [1]: 39 nM | IC50 ([2]; read-out: ERα (nM) IC50): 709 nM

Cc1c2c(cc3ccc(O)cc13)-c1ccc(O)cc1CO2 [Example 21, 7-Methyl-5H-dibenzo[c,g]chromene-3,9-diol]
melting point: 224 to 226 °C | IC50 [1]: 1 nM | IC50 ([2]; read-out: ERα (nM) IC50): 17 nM

COc1ccc(-c2c3c(cc4ccc(O)cc24)-c2ccc(O)cc2CO3)cc1 [Example 27, 7-(4-Methoxyphenyl)-5H-dibenzo[c,g]chromene-3,9-diol]
melting point: 200 to 203 °C | IC50 [1]: 9.8 nM | IC50 ([2]; read-out: ERα (nM) IC50): 702 nM

N#Cc1c2c(cc3ccc(O)cc13)-c1ccc(O)cc1CO2 [Example 14, 3,9-Dihydroxy-5H-dibenzo[c,g]chromene-7-carbonitrile]
melting point: > 280 °C | IC50 [1]: 2.7 nM | IC50 ([2]; read-out: ERα (nM) IC50): 32 nM

Oc1ccc2c(c1)COc1c-2cc2ccc(O)cc2c1-c1cccc2ccccc12 [Example 61, 7-(Naphthyl)-5H-dibenzo[c,g]chromene-3,9-diol]
IC50 ([2]; read-out: ERα (nM) IC50): 172 nM

C=Cc1c2c(cc3ccc(O)cc13)-c1ccc(O)cc1CO2 [Example 16, 7-Vinyl-5H-dibenzo[c,g]chromene-3,9-diol]
IC50 [1]: 2 nM | IC50 ([2]; read-out: ERα (nM) IC50): 44 nM

Oc1ccc2c(c1)COc1ccc3ccc(O)cc3c1-2 [Example 5, 5H-Dibenzo[c,f]chromene-3,11-diol]
melting point: 199 to 201 °C

COc1c2c(cc3ccc(O)cc13)-c1ccc(O)cc1CO2 [Example 15, 7-Methoxy-5H-dibenzo[c,g]chromene-3,9-diol]
IC50 [1]: 4.3 nM | IC50 ([2]; read-out: ERα (nM) IC50): 169 nM

Cc1cc(C)cc(-c2c3c(cc4ccc(O)cc24)-c2ccc(O)cc2CO3)c1 [Example 63, 7-(3,5-Dimethylphenyl)-5H-dibenzo[c,g]chromene-3,9-diol]
melting point: 220 to 223 °C

Oc1ccc2c(c1)COc1c-2cc2ccc(O)cc2c1-c1ccc(Cl)c(Cl)c1 [Example 55, 7-(3,4-Dichlorophenyl)-5H-dibenzo[c,g]chromene-3,9-diol]
melting point: 143 to 145 °C | IC50 [1]: 835 nM

COc1c2c(c(Cl)c3ccc(O)cc13)-c1ccc(O)cc1CO2 [Example 20, 12-Chloro-7-methoxy-5H-dibenzo[c,g]chromene-3,9-diol]
IC50 [1]: 1.4 nM | IC50 ([2]; read-out: ERα (nM) IC50): 13 nM

Oc1ccc2c(c1)COc1c-2cc2ccc(O)cc2c1-c1ccncc1 (as salt: HCl) [Example 37, 7-(4-Pyridyl)-5H-dibenzo[c,g]chromene-3,9-diol]
melting point: > 250 °C

Oc1ccc2c(c1)COc1c-2cc2ccc(O)cc2c1Cl [Example 12, 7-Chloro-5H-dibenzo[c,g]chromene-3,9-diol]
IC50 [1]: 1.5 nM | IC50 ([2]; read-out: ERα (nM) IC50): 15 nM

Oc1ccc2c(c1)COc1c-2cc2ccc(O)cc2c1Br [Example 13, 7-Bromo-5H-dibenzo[c,g]chromene-3,9-diol]
IC50 [1]: 1.2 nM | IC50 ([2]; read-out: ERα (nM) IC50): 13 nM

Oc1ccc2c(c1)COc1c-2cc2ccc(O)cc2c1-c1ccncc1 [Example 37, 7-(4-Pyridyl)-5H-dibenzo[c,g]chromene-3,9-diol]
IC50 [1]: 3.05 nM | IC50 ([2]; read-out: ERα IC50 (cell prints uM)): > 5000 nM
